Test results published in patent publication US12435087B2, “Modulators of DCN-1 and methods of use thereof” (Cellarity, Inc., priority 2023, dated 2025).
Where two headings read alike, the source gives them in different places.

Molecular target: DCN1 (DCUND1) protein PONY domain (Homo sapiens (Human), UniProt Q96GG9)
Test: TR-FRET assay (binding to DCN-1, displacement of FAM-labeled probe)
Summary of the method: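 Compounds read at 1, 5 and 24 h, 0.1% final DMSO, by TR-FRET between terbium-streptavidin on biotinylated DCN1 PONY domain (E. coli) and a FAM-tagged non-covalent inhibitor probe. Two setups used, 5 nM protein with 20 nM labelled probe, or 0.31 nM protein with 100 nM labelled plus 800 nM unlabelled probe; buffer had TritonX and 200 mM NaCl. % activity relative to high (with probe) and low (without probe) controls.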

[1] = 24 hr after treatment with compound, read-out: TR FRET IC50 24 hr
[2] = TR FRET IC50 1 hr (nM), 1 hr after treatment with compound
[3] = read-out: TR FRET IC50 1 hr, 1 hr after treatment with compound

Sequence of DCN1 (DCUND1) protein PONY domain (Q96GG9 60-248): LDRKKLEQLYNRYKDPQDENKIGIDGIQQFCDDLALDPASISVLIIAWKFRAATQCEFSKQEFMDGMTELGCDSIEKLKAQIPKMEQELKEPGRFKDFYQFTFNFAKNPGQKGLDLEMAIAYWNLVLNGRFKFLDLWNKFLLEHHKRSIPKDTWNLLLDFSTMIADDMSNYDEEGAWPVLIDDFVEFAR

Compound | IC50 [1] | IC50 [2] | IC50 [3]
CCN1C(=O)[C@@H](NC(=O)c2nccc(C(F)(F)F)n2)[C@H](c2ccccc2/C=C\C#N)c2cnn(-c3ccccc3)c21 (racemic) [Compound I-260, rac-N-((4R,5S)-4-(2-((Z)-2-cyanovinyl)phenyl)-7-ethyl-6-oxo-1-phenyl-4,5,6,7-tetrahydro-1H-pyrazolo[3,4-b]pyridin-5-yl)-4-(trifluoromethyl)pyrimidine-2-carboxamide] | 1000 to 3000 nM | 1000 to 3000 nM | 
CCN1C(=O)[C@H](NC(=O)c2cccc(C(F)(F)F)c2)[C@@H](c2cccc(N(C)C(=O)C3=CCC3)c2)c2cnn(-c3ccccc3)c21 [Compound I-91] | 1000 to 3000 nM | 1000 to 3000 nM | 
CCN1C(=O)[C@H](NC(=O)c2cccc(C(F)(F)F)c2)[C@@H](c2ccccc2NC#N)c2cnn(-c3ccccc3)c21 (racemic) [Compound I-122, ˜{N}—[˜{rac}-(4˜{S},5˜{R})-4-[2-(cyanoamino)phenyl]-7-ethyl-6-oxo-1-phenyl-4,5-dihydropyrazolo[3,4-b]pyridin-5-yl]-3-(trifluoromethyl)benzamide] | 1000 to 3000 nM | 1000 to 3000 nM | 
C=C(C(=O)NCc1cccc([C@@H]2c3cnn(-c4ccccc4)c3N(CC)C(=O)[C@H]2NC(=O)c2ccn(C(F)(F)F)n2)c1)C(C)N1CCC12COC2 (some centres unmarked) [Compound I-344] | ≤ 200 nM | 200 to 1000 nM | 
CCN1C(=O)[C@@H](NC(=O)c2cccc(C(F)(F)F)c2)[C@H](c2cccc(CNC(=O)C3=CCC3)c2)c2cnn(-c3ccccc3)c21 (racemic) [Compound I-126] | 1000 to 3000 nM | 1000 to 3000 nM | 
C=C(C(=O)NCc1cccc([C@@H]2c3cnn(-c4ccccc4)c3N(CC)C(=O)[C@@H]2NC(=O)c2nccc(C(F)(F)F)n2)c1)C(C)N1CC2(COC2)C1 (stereo partly drawn) [Compound I-377, N-((4R,5R)-7-ethyl-4-(3-((2-methylene-3-(2-oxa-6-azaspiro[3.3]heptan-6-yl)butanamido)methyl)phenyl)-6-oxo-1-phenyl-4,5,6,7-tetrahydro-1H-pyrazolo[3,4-b]pyridin-5-yl)-4-(trifluoromethyl)pyrimidine-2-carboxamide] | 200 to 1000 nM | 1000 to 3000 nM | 
CCN1C(=O)[C@@H](NC(=O)c2cccc(C(F)(F)F)c2)[C@H](c2cccc(CNC(=O)C3=C(C(=O)OC)CC3)c2)c2cnn(-c3ccccc3)c21 [Compound I-155] | ≤ 200 nM | 1000 to 3000 nM | 
C=C(CN1CC2CCC1CO2)C(=O)NCc1cccc([C@@H]2c3cnn(-c4ccccc4)c3N(CC)C(=O)[C@H]2NC(=O)c2cccc(C(F)(F)F)c2)c1 (some centres unmarked) [Compound I-293] | ≤ 200 nM |  | ≤ 200 nM
CCN1C(=O)[C@@H](NC(=O)c2nccc(C(F)(F)F)n2)[C@H](c2cccc(NC(=O)C3=CCN(C)C3)c2)c2c(C)nn(-c3ccccc3)c21 [Compound I-37] | ≤ 200 nM |  | ≤ 200 nM
C=C(CN1CC2CC(C1)O2)C(=O)NCc1cccc([C@@H]2c3cnn(-c4ccccc4)c3N(CC)C(=O)[C@H]2NC(=O)c2nccc(C(F)(F)F)n2)c1 [Compound I-346] | ≤ 200 nM |  | ≤ 200 nM
CCN1C(=O)[C@H](NC(=O)c2cccc(C(F)(F)F)c2)[C@@H](c2cccc(NC(=O)C3CCC3)c2)c2c(C)nn(-c3ccccc3)c21 (racemic) [Compound I-123] | 1000 to 3000 nM | 1000 to 3000 nM | 
CCN1C(=O)[C@@H](NC(=O)c2cccc(C(F)(F)F)c2)[C@H](c2cccc(CNC(=O)/C(C)=C/C(=O)OC)c2)c2cnn(-c3ccccc3)c21 [Compound I-95] | 1000 to 3000 nM | 1000 to 3000 nM | 
C=C(CN1CCC1)C(=O)NCc1cccc([C@H]2c3cnn(-c4ccccc4)c3N(CC)C(=O)[C@@H]2NC(=O)c2cccc(C(F)(F)F)c2)c1 [Compound I-59] | ≤ 200 nM | 1000 to 3000 nM | 
C=C(CN1C2COCC1C2)C(=O)NCc1cccc([C@@H]2c3cnn(-c4ccccc4)c3N(CC)C(=O)[C@H]2NC(=O)c2cccc(C(F)(F)F)c2)c1 [Compound I-8] | ≤ 200 nM |  | ≤ 200 nM
CCN1C(=O)[C@H](NC(=O)c2cccc(C(F)(F)F)c2)[C@@H](c2cccc(CNC(=O)C3=CCCN(C)C3)c2)c2cnn(-c3ccccc3)c21 [Compound I-106] | 1000 to 3000 nM | 1000 to 3000 nM | 
C/C=C(/CN1CCN(C2COC2)CC1)C(=O)NCc1cccc([C@@H]2c3cnn(-c4ccccc4)c3N(CC)C(=O)[C@H]2NC(=O)c2nccc(C(F)(F)F)n2)c1 (racemic) [Compound I-257] | 1000 to 3000 nM | 1000 to 3000 nM | 
CCN1C(=O)[C@H](NC(=O)c2cccc(C(F)(F)F)c2)[C@@H](c2cccc(NC(=O)/C=C/CN(C)C)c2)c2c(CN(C)C)nn(-c3ccccc3)c21 (racemic) [Compound I-212, ˜{N}—[˜{rac}-(4˜{S},5˜{R})-3-[(dimethylamino)methyl]-7-ethyl-6-oxo-1-phenyl-4-[3-[[˜{rac}-(˜{E})-4-(dimethylamino)but-2-enoyl]amino]phenyl]-4,5-dihydropyrazolo[3,4-b]pyridin-5-yl]-3-(trifluoromethyl)benzamide] | ≤ 200 nM | 200 to 1000 nM | 
CCN1C(=O)[C@@H](NC(=O)c2cccc(C(F)(F)F)c2)[C@H](c2cccc(CNC/C=C/C(=O)N(C)C)c2)c2cnn(-c3ccccc3)c21 [Compound I-372] | 200 to 1000 nM | 1000 to 3000 nM | 
C=C(CC(=O)NCc1cccc([C@@H]2c3cnn(-c4ccccc4)c3N(CC)C(=O)[C@H]2NC(=O)c2cccc(C(F)(F)F)c2)c1)C(=O)OC [Compound I-57] | 1000 to 3000 nM | 1000 to 3000 nM | 

Compound | IC50 [1] | IC50 [2] | IC50 [3]
CCN1C(=O)[C@@H](NC(=O)c2nccc(C(F)(F)F)n2)[C@H](c2cccc(CNC(=O)C(COC)CN3CCC(F)(F)C3)c2)c2cnn(-c3ccccc3)c21 (some centres unmarked) [Compound I-360] | 1000 to 3000 nM | 1000 to 3000 nM | 
CCN1C(=O)[C@@H](NC(=O)c2cccc(C(F)(F)F)c2)[C@H](c2ccccc2CNC(=O)C2=CCC2)c2cnn(-c3ccccc3)c21 (racemic) [Compound I-101] | 1000 to 3000 nM | 1000 to 3000 nM | 
C=C(CN1CC(O)C1)C(=O)NCc1cccc([C@@H]2c3cnn(-c4ccccc4)c3N(CC)C(=O)[C@H]2NC(=O)c2cccc(C(F)(F)F)c2)c1 [Compound I-291] | ≤ 200 nM |  | ≤ 200 nM
C=C(CN1CCOCC1)C(=O)Nc1cccc([C@@H]2c3c(C)nn(-c4ccccc4)c3N(CCO)C(=O)[C@@H]2NC(=O)c2cccc(C(F)(F)F)c2)c1 (racemic) [Compound I-55, rac-N-((4R,5R)-7-(2-hydroxyethyl)-3-methyl-4-(3-(2-(morpholinomethyl)acrylamido)phenyl)-6-oxo-1-phenyl-4,5,6,7-tetrahydro-1H-pyrazolo[3,4-b]pyridin-5-yl)-3-(trifluoromethyl)benzamide] | 1000 to 3000 nM | 1000 to 3000 nM | 
C/C=C(\CN1CCN(C2COC2)CC1)C(=O)NCc1cccc([C@@H]2c3cnn(-c4ccccc4)c3N(CC)C(=O)[C@H]2NC(=O)c2ccn(C3CC3)n2)c1 [Compound I-288] | ≤ 200 nM | 200 to 1000 nM | 
C/C=C(\CN(C)C1COC1)C(=O)NCc1cccc([C@@H]2c3cnn(-c4ccccc4)c3N(CC)C(=O)[C@H]2NC(=O)c2ccn(C(F)(F)F)n2)c1 [Compound I-248] | ≤ 200 nM | 200 to 1000 nM | 
CCN1C(=O)[C@@H](NC(=O)c2nccc(C(F)(F)F)n2)[C@H](c2cccc(C(=O)N(C)CC#N)c2)c2cnn(-c3ccccc3)c21 (racemic) [Compound I-370] | 1000 to 3000 nM | 1000 to 3000 nM | 
C=C(CN1CC(C)(O)C1)C(=O)NCc1cccc([C@@H]2c3cnn(-c4ccccc4)c3N(CC)C(=O)[C@H]2NC(=O)c2cccc(C(F)(F)F)c2)c1 [Compound I-361] | ≤ 200 nM |  | ≤ 200 nM
C=C(CN1CCN(C2COC2)CC1)C(=O)NCc1cccc([C@@H]2c3c(C)nn(-c4ccccc4)c3N(CC)C(=O)[C@H]2NC(=O)c2cccc(C(F)(F)F)c2)c1 (stereo in doubt) [Compound I-252] | ≤ 200 nM | 1000 to 3000 nM | 
C=C(CN1CC2CC1C2)C(=O)NCc1cccc([C@@H]2c3cnn(-c4ccccc4)c3N(CC)C(=O)[C@H]2NC(=O)c2cccc(C(F)(F)F)c2)c1 [Compound I-13] | ≤ 200 nM |  | ≤ 200 nM
C/C=C(/CN1CCOCC1)C(=O)NCc1cccc([C@@H]2c3cnn(-c4ccccc4)c3N(CC)C(=O)[C@H]2NC(=O)c2ccn(C3CC3)n2)c1 [Compound I-381] | 1000 to 3000 nM | 1000 to 3000 nM | 
C/C=C(\CN(C)C1COC1)C(=O)NCc1cccc([C@@H]2c3cnn(-c4ccccc4)c3N(CC)C(=O)[C@H]2NC(=O)c2nccc(C(F)(F)F)n2)c1 [Compound I-322] | ≤ 200 nM | 1000 to 3000 nM | 
CCN1C(=O)[C@@H](NC(=O)c2nccc(C(F)(F)F)n2)[C@H](c2cccc(NC(=O)/C=C/C(=O)N3CCCC3)c2)c2c(C)nn(-c3ccccc3)c21 (racemic) [Compound I-262] | 1000 to 3000 nM | 1000 to 3000 nM | 
CCN1C(=O)[C@@H](NC(=O)c2cccc(C(F)(F)F)c2)[C@H](c2cccc(CNC(=O)C3=C(C(=O)OC)CCC3)c2)c2cnn(-c3ccccc3)c21 [Compound I-108] | 1000 to 3000 nM | 1000 to 3000 nM | 
C=C(CN1CC2(CCOC2)C1)C(=O)NCc1cccc([C@@H]2c3cnn(-c4ccccc4)c3N(CC)C(=O)[C@H]2NC(=O)c2cccc(C(F)(F)F)c2)c1 [Compound I-12] | ≤ 200 nM |  | ≤ 200 nM
C=C(CN1CCC1)C(=O)NCc1cccc([C@H]2c3c(C)nn(-c4ccccc4)c3N(CC)C(=O)[C@@H]2NC(=O)c2cccc(C(F)(F)F)c2)c1 [Compound I-374] | 200 to 1000 nM | 200 to 1000 nM | 
C=C(CC(=O)OC)C(=O)NCc1cccc([C@H]2c3cnn(-c4ccccc4)c3N(CC)C(=O)[C@@H]2NC(=O)c2cccc(C(F)(F)F)c2)c1 [Compound I-121] | 1000 to 3000 nM | 1000 to 3000 nM | 
C=C(CN1CC2CC1CO2)C(=O)NCc1cccc([C@@H]2c3c(C)nn(-c4ccccc4)c3N(CC)C(=O)[C@H]2NC(=O)c2cccc(C(F)(F)F)c2)c1 (some centres unmarked) [Compound I-236] | ≤ 200 nM |  | ≤ 200 nM
